Patent US20240174693A1, “SOMATOSTATIN RECEPTOR SUBTYPE 4 (SSTR4) AGONISTS AND THEIR APPLICATIONS” (Humanwell Pharmaceutical US, priority 2022, published 2024)

Experiments:
CYP1A2 = target: T1, CYP1A2 (Homo sapiens, UniProt P05177); test: CYP inhibition in HLM, CYP1A2; type: in vitro ADME; conditions: read-out: CYP inhibition (IC50 um) 1A2
T1 construct: from tissue; host or cells: liver microsomes (HLM)
T1 sequence (P05177 1-516): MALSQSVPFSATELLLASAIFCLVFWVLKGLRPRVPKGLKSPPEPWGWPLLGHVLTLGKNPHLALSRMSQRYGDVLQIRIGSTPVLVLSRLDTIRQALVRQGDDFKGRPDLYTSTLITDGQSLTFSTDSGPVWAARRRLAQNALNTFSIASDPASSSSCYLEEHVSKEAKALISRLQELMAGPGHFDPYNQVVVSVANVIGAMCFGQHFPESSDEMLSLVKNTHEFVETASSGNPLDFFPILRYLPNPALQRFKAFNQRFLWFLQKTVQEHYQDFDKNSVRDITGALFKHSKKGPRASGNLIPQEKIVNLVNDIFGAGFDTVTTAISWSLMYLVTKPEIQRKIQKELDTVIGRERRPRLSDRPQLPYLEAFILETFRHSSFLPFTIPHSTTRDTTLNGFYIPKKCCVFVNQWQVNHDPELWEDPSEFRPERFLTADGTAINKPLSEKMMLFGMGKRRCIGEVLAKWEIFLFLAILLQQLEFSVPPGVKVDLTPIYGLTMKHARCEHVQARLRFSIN
Experimental: 0.1 M potassium phosphate buffer (K-buffer), pH 7.4 was preheated. K-buffer was prepared by mixing 9.5 mL Stock A into 40.5 mL Stock B. The total volume was brought to 500 mL with Milli-Q water. The buffer was titrated with KOH or H3PO4 to pH 7.4. Stock A (1 M monobasic potassium phosphate) was prepared by adding 136.5 g of monobasic potassium phosphate into 1 L of Milli-Q water. Stock B (1 M dibasic potassium phosphate) was prepared by adding 174.2 g of dibasic potassium phosphate in 1 L of Milli-Q water.
Serial dilution for test compound and reference inhibitors (400×) was prepared in a 96-well plate. 8 μL of 10 mM test compounds was transferred to 12 μL of ACN. Inhibitor spiking solution was prepared for CYP1A2, CYP2C9 and CYP2D6 in cocktail by adding 12 μL of 1 mM α-Naphthoflavon, 10 μL of 40 mM Sulfaphenazole, 10 μL of 10 mM Quinidine, and 8 μL of DMSO. Individual inhibitor spiking solution for CYP3A4 and CYP2C19 was prepared by adding 8 μL of DMSO stock to 12 μL of ACN. 1:3 serial dilutions were performed in DMSO:ACN mixture (v/v: 40:60).
NADPH cofactor was prepared by dissolving 66.7 mg NADPH in 10 mL 0.1 M K-buffer, pH7.4. 4×substrate (2 mL for each isoform) was prepared. HLM was added were required on ice. 0.2 mg/mL HLM solution was prepared using 10 μL of 20 mg/mL to 990 μL of 0.1 M K-buffer on ice. 400 μL of 0.2 mg/mL HLM were added to the assay wells and then 2 μL of 400×test compound set were added into the designated wells on ice. 200 μL of 0.2 mg/mL HLM was added to the assay wells and followed by 1 μL of serially diluted reference inhibtor solution into the designated wells on ice. The following solutions were added in duplicated in a 96-well plate on ice: 30 μL of 2×test compound and reference compound in 0.2 mg/mL HLM solution and 15 μL of 4×substrate solution. The 96-well assay plate and NADPH solution were pre-incubated at 37° C. for 5 minutes. 15 μL of pre-warmed 8 mM NADPH solution was added to into the assay plates to initiate the reaction. The assay plate was incubated at 37° C. 5 mins, 10 mins, and 45 mins. […]

[1] = Log D octanol / potassium phosphate buffer; type: physicochemical; conditions: octanol / potassium phosphate buffer (pH 7.4), 25° C.
Experimental: 10 μL of 10 mM stock solutions were placed into a 96-well plate. 300 μL of octanol into the plate was added to the plate. The plate was sealed and agitated on a plate shaker for 5 minutes. The plate was centrifuged at 2000 rpm for 5 minutes. The seal was removed and 600 μL of potassium phosphate buffer (pH 7.4) was added. The plate was sealed, and the two phases were mixed on the plate shaker vigorously for 1 hour at 25° C. The plate was centrifuged at 2000 rpm for 5 minutes after mixing and the seal was removed. 10 μL of water phase samples from the water phase plate was aspirated and mixed with 10 μL of water (1:2 dilution). 180 μL of 50% Ethanol was added into the water phase sample plate (1:10 dilution) to achieve 1:20 dilution. 50 μL of water phase sample was mixed with 100 μL of 50% Ethanol (containing IS) into the water phase sample plate to achieve 1:60 dilution. 10 μL from the octanol phase (the upper phase) was transfered into a new 96-well plate and 190 μL 50% Ethanol (1:20 dilution) was added. 10 μL of 1:20 diluted octanol samples were transferred into a new 96 deep-well plate and 390 μL 50% Ethanol (1:40 dilution) was added to achieve 1:800 dilution. 50 μL of 1:800 diluted octanol samples were transferred into a new 96-well plate again and 100 μL 50% ethanol with IS was added to achieve 1:2400 dilution. Samples were ready for LC/MS analysis.

Compound | IC50 (CYP1A2) [µM] | logD [1]
CC(C)(NC(=O)[C@H]1[C@@H]2CNC[C@H]1C2)c1ncc2c(Cl)cccn12 [Compound 7, (1R,5S,6r)-N-(2-(8-chloroimidazo[1,5-a]pyridin-3-yl)propan-2-yl)-3-azabicyclo[3.1.1]heptane-6-carboxamide] | > 10 | -0.07
CC(C)(NC(=O)[C@H]1[C@@H]2CNC[C@H]1C2)c1ncc2c(Br)cccn12 [Compound 8, (1R,5S,6r)-N-(2-(8-bromoimidazo[1,5-a]pyridin-3-yl)propan-2-yl)-3-azabicyclo[3.1.1]heptane-6-carboxamide] | > 10 | -0.15
CC(C)(NC(=O)[C@H]1[C@@H]2CNC[C@H]1C2)c1nc(C2CC2)c2ccccn12 [Compound 9, (1R,5S,6r)-N-(2-(1-cyclopropylimidazo[1,5-a]pyridin-3-yl)propan-2-yl)-3-azabicyclo[3.1.1]heptane-6-carboxamide] | > 10 | -0.11
